Assay results reported in ChEMBL document CHEMBL4376902, “CN128: A New Orally Active Hydroxypyridinone Iron Chelator” (J Med Chem, 2020).

Legend:
[1] = Apparent volume of distribution in Sprague-Dawley rat at 75 umol/kg, po measured up to 1440 mins by LC/MS/MS analysis; format: ADME, organism-based; details: in vivo, 24 h
Cytochrome P450 2C8 = target: T1, Cytochrome P450 2C8 (Homo sapiens, UniProt P10632); test: Inhibition of CYP2C8 in human liver microsomes; format: ADME
T1 sequence (P10632 whole entry): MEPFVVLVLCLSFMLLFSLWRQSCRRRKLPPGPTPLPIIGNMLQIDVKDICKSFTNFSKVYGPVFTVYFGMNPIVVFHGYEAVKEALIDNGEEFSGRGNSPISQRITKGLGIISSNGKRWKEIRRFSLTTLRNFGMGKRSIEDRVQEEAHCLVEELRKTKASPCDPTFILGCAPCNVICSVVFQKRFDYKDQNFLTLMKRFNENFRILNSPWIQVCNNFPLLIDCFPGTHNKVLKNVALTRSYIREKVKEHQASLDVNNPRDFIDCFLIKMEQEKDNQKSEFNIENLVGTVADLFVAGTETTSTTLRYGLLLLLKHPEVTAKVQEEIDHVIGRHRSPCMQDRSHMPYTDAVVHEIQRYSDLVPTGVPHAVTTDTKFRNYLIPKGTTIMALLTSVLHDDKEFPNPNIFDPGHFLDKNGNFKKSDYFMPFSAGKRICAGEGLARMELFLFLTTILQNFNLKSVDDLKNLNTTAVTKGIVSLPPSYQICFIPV

Compound: Cc1c(O)c(O)cc[n+]1[C@@H](CO)Cc1ccccc1.[Cl-]
- Vz [1]: 7.6 L/kg
- IC50 (Cytochrome P450 2C8): > 200 µM
